Results: patent US20260274785A1, “CYCLOHEXYL OR HETEROCYCLOALKYL BETA-HYDROXY ALKYL AMINES FOR USE IN THE TREATMENT OF HYPERGLYCAEMIA AND DISORDERS CHARACTERISED BY HYPERGLYCAEMIA” (ATROGI AB, priority 2023, published 2026)
Counter-ions that a name gives are not always drawn.

Key:
L6-myotubes [1] = assay: Measurement of intracellular cAMP levels in differentiated L6 cells; format: cell-based; conditions: Rattus norvegicus, 0.25 h, agonist final concentration 1×10^−5 M, 15 min, alpha screen cAMP kit, read-out: Biological example 2: intracellular cAMP levels, activity compared to that of isoproterenol
Procedure: (§1) L6-myoblasts were grown in Dulbecco's Modified Eagle's Medium (DMEM) containing 1 g/L glucose supplemented with 10% fetal bovine serum, 2 mM L-Glutamine, 50 U/mL penicillin, 50 μg/mL streptomycin and 10 mM HEPES. Cells were plated at 1×10^5 cells per mL in 24-well plates. After reaching 90% confluence the cells were grown in medium containing 2% FBS for 7 days where upon cells differentiated into myotubes.
Differentiated cells were serum-starved overnight and stimulated with an agonist, final concentration 1×10^−5 M, for 15 min in stimulation buffer (HBSS supplemented with 1% BSA, 5 mM HEPES and 1 mM IBMX, pH 7.4). The medium was aspirated and 100 μL of 95% EtOH was added to each well of the 24-well plate and cells were kept at −20° C. overnight. The EtOH was allowed to evaporate and 500 μL of lysis buffer (1% BSA, 5 mM HEPES and 0.3% Tween-20, pH 7.4) was added to each well. The plate was kept at −80° C. for 30 min and then at −20° C. until the day of detection when the samples were thawed. Intracellular cAMP levels were detected using an alpha screen cAMP kit (6760635D from Perkin Elmer). The activity for each compound is compared to that of isoproterenol.

L6-myotubes [2] = assay: Glucose uptake (3H-2-deoxyglucose) in differentiated L6-myotubes; format: cell-based; conditions: agonist final concentration 1×10^−5 M, 3H-2-deoxyglucose uptake, read-out: Biological example 1: glucose uptake, activity compared to that of isoproterenol
Procedure: as §1
Differentiated L6-myotubes were serum-starved overnight in medium containing 0.5% fatty-acid free BSA and stimulated with an agonist, with a final concentration of 1×10^−5 M. After 1 h 40 min the cells were washed with warm glucose free medium or PBS twice and another portion of agonist was added to the glucose free medium. After 20 min the cells were exposed to 50 nM ^3H-2-deoxyglucose for another 10 min before washed in ice cold glucose free medium or PBS three times and lysed in 400 μL/well 0.2 M NaOH for 1 h at 60° C. The cell lysate was mixed with 4 mL scintillation buffer (Emulsifier Safe, Perkin Elmer) and the radioactivity was detected in a β-counter (Tri-Carb 4810TR, Perkin Elmer). The activity for each compound is compared to that of isoproterenol.

Row | Compound | Emax at 10 µM (L6-myotubes [1]) | Emax at 10 µM (L6-myotubes [2])
1 | CS(=O)(=O)N[C@H]1CC[C@@H](NC[C@H](O)c2cccc(F)c2)CC1 [Example 13, N-((cis)-4-(((R)-2-(3-Fluorophenyl)-2-hydroxyethyl)amino)cyclohexyl)-methanesulfonamide hydrochloride] | < 25% | 50 to 75%
2 | COC(=O)CS(=O)(=O)N1CCC(C)(NC[C@H](O)c2cccc(F)c2)CC1 [Example 21, Methyl (R)-2-((4-((2-(3-fluorophenyl)-2-hydroxyethyl)amino)-4-methylpiperidin-1-yl)sulfonyl)acetate hydrochloride] | 25 to 50% | > 75%
3 | CS(=O)(=O)N[C@H]1CC[C@@H](NC[C@H](O)c2cncc(F)c2)CC1 [Example 14, N-((cis)-4-(((R)-2-(5-Fluoropyridin-3-yl)-2-hydroxyethyl)amino)-cyclohexyl)methanesulfonamide] | < 25% | > 75%
4 | CC(=O)N[C@H]1CC[C@@H](NC[C@H](O)c2cccc(F)c2)CC1 [Example 11, N-((cis)-4-(((R)-2-(3-fluorophenyl)-2-hydroxyethyl)amino)-cyclohexyl)acetamide] | < 25% | 50 to 75%
5 | CC(=O)N[C@H]1CC[C@H](NC[C@H](O)c2cncc(F)c2)CC1 [Example 16, N-((trans)-4-(((R)-2-(5-Fluoropyridin-3-yl)-2-hydroxyethyl)amino)-cyclohexyl)acetamide] | < 25% | 25 to 50%
6 | CC(C)(C[C@H]1CC[C@@H](NC[C@H](O)c2cccc(F)c2)CC1)NS(C)(=O)=O [Example 2, N-(1-((cis)-4-(((R)-2-(3-fluorophenyl)-2-hydroxyethyl)amino)-cyclohexyl)-2-methylpropan-2-yl)methanesulfonamide] | < 25% | < 25%
7 | CC(=O)N1CCC(C)(NC[C@H](O)c2cncc(F)c2)CC1 [Example 7, (R)-1-(4-((2-(5-Fluoropyridin-3-yl)-2-hydroxyethyl)amino)-4-methyl-piperidin-1-yl)ethan-1-one] | < 25% | 50 to 75%
8 | CC1(NC[C@H](O)c2cccc(F)c2)CCN(S(=O)(=O)CC(=O)O)CC1 [Example 22, (R)-2-((4-((2-(3-Fluorophenyl)-2-hydroxyethyl)amino)-4-methyl-piperidin-1-yl)sulfonyl)acetic acid] | < 25% | > 75%
9 | CC(=O)NC(C)(C)C[C@H]1CC[C@@H](NC[C@H](O)c2cccc(F)c2)CC1 [Example 1, N-(1-((cis)-4-(((R)-2-(3-Fluorophenyl)-2-hydroxyethyl)amino)-cyclohexyl)-2-methylpropan-2-yl)acetamide] | < 25% | 50 to 75%
10 | CCOC(=O)CO[C@H]1CC[C@H](NC[C@H](O)c2cccc(F)c2)CC1 [Example 9, Ethyl 2-(((trans)-4-(((R)-2-(3-fluorophenyl)-2-hydroxyethyl)amino)-cyclohexyl)oxy)acetate] | < 25% | 25 to 50%
11 | COC(=O)CN1CCC(C)(NC[C@H](O)c2cccc(F)c2)CC1 [Example 19, Methyl (R)-2-(4-((2-(3-fluorophenyl)-2-hydroxyethyl)amino)-4-methyl-piperidin-1-yl)acetate dihydrochloride] | > 75% | > 75%
12 | CC(C)(C[C@H]1CC[C@@H](NC[C@H](O)c2cncc(F)c2)CC1)NS(C)(=O)=O [Example 4, N-(1-((cis)-4-(((R)-2-(5-Fluoropyridin-3-yl)-2-hydroxyethyl)amino)-cyclohexyl)-2-methylpropan-2-yl)methanesulfonamide] | < 25% | 50 to 75%
13 | CC1(NC[C@H](O)c2cccc(F)c2)CCN(CC(=O)O)CC1 [Example 20, (R)-2-(4-((2-(3-Fluorophenyl)-2-hydroxyethyl)amino)-4-methyl-piperidin-1-yl)acetic acid acetate] | < 25% | 50 to 75%
14 | CC(=O)N[C@H]1CC[C@H](NC[C@H](O)c2cccc(F)c2)CC1 [Example 15, N-((trans)-4-(((R)-2-(3-Fluorophenyl)-2-hydroxyethyl)amino)-cyclohexyl)acetamide] | < 25% | 25 to 50%
15 | CC(=O)N[C@H]1CC[C@@H](NC[C@H](O)c2cncc(F)c2)CC1 [Example 12, N-((cis)-4-(((R)-2-(5-Fluoropyridin-3-yl)-2-hydroxyethyl)amino)-cyclohexyl)acetamide] | < 25% | > 75%
16 | CC(=O)NC(C)(C)C[C@H]1CC[C@@H](NC[C@H](O)c2cncc(F)c2)CC1 [Example 3, N-(1-((cis)-4-(((R)-2-(5-Fluoropyridin-3-yl)-2-hydroxyethyl)amino)-cyclohexyl)-2-methylpropan-2-yl)acetamide] | < 25% | > 75%
17 | CCCCS(=O)(=O)N1CCC(C)(NC[C@H](O)c2cccc(F)c2)CC1 [Example 23, (R)-2-((1-(Butylsulfonyl)-4-methylpiperidin-4-yl)amino)-1-(3-fluoro-phenyl)ethan-1-ol acetate] | 25 to 50% | > 75%
18 | CC1(NC[C@H](O)c2cncc(F)c2)CCN(S(C)(=O)=O)CC1 [Example 8, (R)-1-(5-Fluoropyridin-3-yl)-2-((4-methyl-1-(methylsulfonyl)piperidin-4-yl)amino)ethan-1-ol dihydrochloride] | 25 to 50% | > 75%
19 | CS(=O)(=O)N[C@H]1CC[C@H](NC[C@H](O)c2cncc(F)c2)CC1 [Example 18, N-((trans)-4-(((R)-2-(5-fluoropyridin-3-yl)-2-hydroxyethyl)amino)-cyclohexyl)methanesulfonamide] | < 25% | 50 to 75%
20 | CS(=O)(=O)N[C@H]1CC[C@H](NC[C@H](O)c2cccc(F)c2)CC1 [Example 17, N-((trans)-4-(((R)-2-(3-Fluorophenyl)-2-hydroxyethyl)amino)-cyclohexyl)methanesulfonamide] | < 25% | 50 to 75%
21 | O=C(O)CO[C@H]1CC[C@H](NC[C@H](O)c2cccc(F)c2)CC1 [Example 10, 2-(((trans)-4-(((R)-2-(3-Fluorophenyl)-2-hydroxyethyl)amino)-cyclohexyl)oxy)acetic acid] | < 25% | 25 to 50%
22 | CC1(NC[C@H](O)c2cccc(F)c2)CCN(S(C)(=O)=O)CC1 [Example 6, (R)-1-(3-Fluorophenyl)-2-((4-methyl-1-(methylsulfonyl)piperidin-4-yl)-amino)ethan-1-ol] | < 25% | > 75%
23 | CN(C)C(=O)N1CCC(C)(NC[C@H](O)c2cccc(F)c2)CC1 [Example 24, (R)-4-((2-(3-Fluorophenyl)-2-hydroxyethyl)amino)-N,N,4-trimethyl-piperidine-1-carboxamide acetate] |  | > 75%
24 | CC(=O)N1CCC(C)(NC[C@H](O)c2cccc(F)c2)CC1 [Example 5, (R)-1-(4-((2-(3-Fluorophenyl)-2-hydroxyethyl)amino)-4-methyl-piperidin-1-yl)ethan-1-one] | < 25% | 25 to 50%
